Measurements: ChEMBL document CHEMBL4321836, “Discovery of BAY-298 and BAY-899: Tetrahydro-1,6-naphthyridine-Based, Potent, and Selective Antagonists of the Luteinizing Hormone Receptor Which Reduce Sex Hormone Levels in Vivo” (J Med Chem, 2019)

How the values were obtained:
[1] = target: Cannabinoid receptor 1 (Homo sapiens) (UniProt P21554); experiment: Agonist activity at human CB1 receptor expressed in CHO-K1 cells at 10 uM after 20 mins HTRF assay relative to control; format: cell-based
[2] = Clearance in Wistar rat at 0.5 mg/kg, iv after 2 to 72 hrs by LC-MS/MS analysis; format: ADME, organism-based; settings: in vivo
[3] = target: Motilin receptor (Homo sapiens) (UniProt O43193); experiment: Antagonist activity at human Motilin receptor expressed in CHO-K1 cells at 10 uM by fluorimetric method relative to control; format: cell-based; set-up: scale not given: the % may be the effect or the level left
[4] = Dose normalized AUC in Wistar rat at 0.5 mg/kg, iv after 2 to 72 hrs by LC-MS/MS analysis; format: ADME, organism-based; settings: in vivo
[5] = target: Lutropin-choriogonadotropic hormone receptor (Homo sapiens, UniProt P22888); experiment: Antagonist activity at human luteinizing hormone receptor assessed as reduction in agonist-induced cAMP production preincubated for 20 mins followed by agonist solution addition after 60 mins by cell based TR-FRET assay; format: functional
[6] = organism: Homo sapiens; experiment: Selectivity ratio of IC50 for human thyroid stimulating hormone receptor expressed in rat HTC133 cells to human luteinizing hormone receptor; format: cell-based
[7] = Lipophilicity, logD of the compound at pH 7.5 by reversed-phase HPLC; format: physicochemical; settings: buffer
[8] = Maximum oral bioavailability in human liver microsomes based well stirred liver model at 1 uM measured after 2 to 60 mins in presence of glucose-6-phosphate by LC-MS/MS analysis; format: ADME, Microsome; settings: read-out: Fmax
[9] = target: T1, Alpha-1A adrenergic receptor (Homo sapiens) (UniProt P35348); experiment: Antagonist activity at human alpha1A adrenergic receptor expressed in CHO-K1 cells at 10 uM by fluorimetric method relative to control; format: cell-based; set-up: scale not given: the % may be the effect or the level left
T1 sequence (whole entry): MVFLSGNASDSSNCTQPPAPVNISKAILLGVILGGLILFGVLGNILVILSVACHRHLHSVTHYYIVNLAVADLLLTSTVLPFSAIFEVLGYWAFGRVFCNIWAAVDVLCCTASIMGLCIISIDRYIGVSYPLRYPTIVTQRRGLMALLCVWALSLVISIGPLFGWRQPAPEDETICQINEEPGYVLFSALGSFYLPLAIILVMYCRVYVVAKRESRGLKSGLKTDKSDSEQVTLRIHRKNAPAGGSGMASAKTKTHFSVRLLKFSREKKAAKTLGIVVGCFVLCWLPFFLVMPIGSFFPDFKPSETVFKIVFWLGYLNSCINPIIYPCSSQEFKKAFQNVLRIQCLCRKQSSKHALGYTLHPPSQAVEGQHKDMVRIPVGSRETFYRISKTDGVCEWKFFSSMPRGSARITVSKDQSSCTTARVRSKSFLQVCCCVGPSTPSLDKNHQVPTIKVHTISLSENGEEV

[10] = target: T1, Alpha-1A adrenergic receptor (Homo sapiens); experiment: Agonist activity at human alpha1A adrenergic receptor expressed in CHO-K1 cells at 10 uM by fluorimetric method relative to control; format: cell-based
[11] = target: Voltage-gated inwardly rectifying potassium channel KCNH2 (Homo sapiens, UniProt Q12809); experiment: Inhibition of human ERG expressed in HEK293 cells at holding potential -80 mV by whole-cell voltage-clamp method; format: cell-based
[12] = target: T2, Adenosine receptor A2b (Homo sapiens) (UniProt P29275); experiment: Antagonist activity at human A2B receptor expressed in HEK293 cells at 10 uM after 10 mins by HTRF assay relative to control; format: cell-based; set-up: scale not given: the % may be the effect or the level left
T2 sequence (whole entry): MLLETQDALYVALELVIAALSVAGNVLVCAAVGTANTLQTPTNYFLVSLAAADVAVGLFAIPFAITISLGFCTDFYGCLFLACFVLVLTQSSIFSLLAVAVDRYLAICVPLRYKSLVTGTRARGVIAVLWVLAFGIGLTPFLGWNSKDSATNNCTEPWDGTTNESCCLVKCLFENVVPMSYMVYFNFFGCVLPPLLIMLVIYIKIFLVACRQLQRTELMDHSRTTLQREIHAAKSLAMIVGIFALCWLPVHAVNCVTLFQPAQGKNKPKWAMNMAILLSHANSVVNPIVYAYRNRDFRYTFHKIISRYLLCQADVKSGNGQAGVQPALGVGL

[13] = target: Cytochrome P450 1A2 (Homo sapiens, UniProt P05177); experiment: Inhibition of CYP1A2 in human liver microsomes using phenacetin as substrate by LC-MS/MS analysis; format: ADME
[14] = Volume of distribution at steady state in Wistar rat at 0.5 mg/kg, iv after 2 to 72 hrs by LC-MS/MS analysis; format: ADME, organism-based; settings: in vivo, read-out: Vdss
[15] = Clearance in human liver microsomes at 1 uM measured after 2 to 60 mins in presence of glucose-6-phosphate by LC-MS/MS analysis; format: ADME, Microsome
[16] = target: P2Y purinoceptor 2 (Homo sapiens) (UniProt P41231); experiment: Agonist activity at human P2Y2 receptor expressed in human 1321N1 cells at 10 uM by fluorimetric method relative to control; format: cell-based
[17] = target: Histamine H3 receptor (Homo sapiens) (UniProt Q9Y5N1); experiment: Antagonist activity at human histamine H3 receptor expressed in CHO-K1 cells at 10 uM after 10 mins by HTRF assay relative to control; format: cell-based; set-up: scale not given: the % may be the effect or the level left
[18] = target: Mu-type opioid receptor (Homo sapiens) (UniProt P35372); experiment: Antagonist activity at human mu opioid receptor expressed in CHO-K1 cells at 10 uM after 10 mins by HTRF assay relative to control; format: cell-based; set-up: scale not given: the % may be the effect or the level left
[19] = Dose normalized Cmax in Wistar rat at 0.5 mg/kg, iv after 2 to 72 hrs by LC-MS/MS analysis; format: ADME, organism-based; settings: in vivo
[20] = Dose normalized AUC in Wistar rat at 2 mg/kg, po after 8 to 72 hrs by LC-MS/MS analysis; format: ADME, organism-based; settings: in vivo
[21] = target: Melanocortin receptor 4 (Homo sapiens) (UniProt P32245); experiment: Antagonist activity at human MC4 receptor expressed in CHO-K1 cells at 10 uM after 30 mins by HTRF assay relative to control; format: cell-based; set-up: scale not given: the % may be the effect or the level left
[22] = Protein binding in human plasma assessed as unbound fraction; format: ADME, cell-free
[23] = Efflux ratio of apparent permeability from basolateral to apical over apical to basolateral side in human Caco2 cells at 2 uM after 2 hrs by LC-MS/MS analysis; format: ADME, cell-based; settings: Caco-2
[24] = target: Thyrotropin receptor (Homo sapiens, UniProt P16473); experiment: Antagonist activity at human thyroid stimulating hormone receptor expressed in rat HTC133 cells assessed as reduction in agonist-induced cAMP production preincubated for 20 mins followed by agonist solution addition and measured after 60 mins by cell based TR-FRET assay; format: functional
[25] = target: Beta-2 adrenergic receptor (Homo sapiens) (UniProt P07550); experiment: Antagonist activity at human beta2 adrenergic receptor expressed in CHO-K1 cells at 10 uM after 30 mins HTRF assay relative to control; format: cell-based; set-up: scale not given: the % may be the effect or the level left
[26] = target: Kappa-type opioid receptor (Homo sapiens) (UniProt P41145); experiment: Agonist activity at human kappa opioid receptor at 10 uM by Spectrophotometric method relative to control
[27] = target: 5-hydroxytryptamine receptor 2B (Homo sapiens) (UniProt P41595); experiment: Antagonist activity at human 5-HT2B receptor expressed in CHO-K1 cells at 10 uM after 30 mins by HTRF assay relative to control; format: cell-based; set-up: scale not given: the % may be the effect or the level left
Sequence of 5-hydroxytryptamine receptor 2B (Homo sapiens) (P41595 whole entry): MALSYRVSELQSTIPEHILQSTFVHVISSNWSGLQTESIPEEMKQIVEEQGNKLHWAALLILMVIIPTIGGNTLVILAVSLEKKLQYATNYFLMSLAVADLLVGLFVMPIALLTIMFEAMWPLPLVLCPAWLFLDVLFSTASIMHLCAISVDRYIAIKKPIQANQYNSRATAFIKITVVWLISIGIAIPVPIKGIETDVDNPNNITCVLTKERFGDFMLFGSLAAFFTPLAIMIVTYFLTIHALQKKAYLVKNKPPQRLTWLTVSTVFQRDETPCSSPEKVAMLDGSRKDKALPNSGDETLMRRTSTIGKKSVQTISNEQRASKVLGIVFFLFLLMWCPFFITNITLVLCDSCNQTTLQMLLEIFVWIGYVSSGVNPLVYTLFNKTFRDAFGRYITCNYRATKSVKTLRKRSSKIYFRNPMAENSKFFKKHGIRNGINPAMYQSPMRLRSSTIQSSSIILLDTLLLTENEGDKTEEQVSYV

Sequence of Kappa-type opioid receptor (Homo sapiens) (P41145 whole entry): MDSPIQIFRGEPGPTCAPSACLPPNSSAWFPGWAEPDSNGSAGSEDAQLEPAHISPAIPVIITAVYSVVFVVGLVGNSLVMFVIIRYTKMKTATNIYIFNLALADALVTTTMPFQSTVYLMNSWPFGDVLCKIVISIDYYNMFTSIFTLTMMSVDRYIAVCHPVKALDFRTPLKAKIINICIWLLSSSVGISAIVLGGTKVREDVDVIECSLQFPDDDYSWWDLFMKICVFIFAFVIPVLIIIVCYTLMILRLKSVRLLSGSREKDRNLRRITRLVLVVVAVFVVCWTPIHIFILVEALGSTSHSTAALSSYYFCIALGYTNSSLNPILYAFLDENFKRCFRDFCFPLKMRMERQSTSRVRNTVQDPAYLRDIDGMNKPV
Sequence of Mu-type opioid receptor (Homo sapiens) (P35372 whole entry): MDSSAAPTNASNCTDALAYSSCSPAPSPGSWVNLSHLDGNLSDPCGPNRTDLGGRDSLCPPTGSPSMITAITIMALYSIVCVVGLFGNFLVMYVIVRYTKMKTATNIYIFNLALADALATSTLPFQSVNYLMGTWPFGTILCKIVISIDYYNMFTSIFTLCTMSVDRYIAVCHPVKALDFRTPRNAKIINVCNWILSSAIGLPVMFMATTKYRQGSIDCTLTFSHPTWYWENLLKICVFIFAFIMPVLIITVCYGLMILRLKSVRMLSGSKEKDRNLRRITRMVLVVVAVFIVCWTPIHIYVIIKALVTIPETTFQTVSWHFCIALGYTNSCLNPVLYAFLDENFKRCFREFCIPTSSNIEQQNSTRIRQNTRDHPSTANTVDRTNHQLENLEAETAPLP
Sequence of Thyrotropin receptor (P16473 whole entry): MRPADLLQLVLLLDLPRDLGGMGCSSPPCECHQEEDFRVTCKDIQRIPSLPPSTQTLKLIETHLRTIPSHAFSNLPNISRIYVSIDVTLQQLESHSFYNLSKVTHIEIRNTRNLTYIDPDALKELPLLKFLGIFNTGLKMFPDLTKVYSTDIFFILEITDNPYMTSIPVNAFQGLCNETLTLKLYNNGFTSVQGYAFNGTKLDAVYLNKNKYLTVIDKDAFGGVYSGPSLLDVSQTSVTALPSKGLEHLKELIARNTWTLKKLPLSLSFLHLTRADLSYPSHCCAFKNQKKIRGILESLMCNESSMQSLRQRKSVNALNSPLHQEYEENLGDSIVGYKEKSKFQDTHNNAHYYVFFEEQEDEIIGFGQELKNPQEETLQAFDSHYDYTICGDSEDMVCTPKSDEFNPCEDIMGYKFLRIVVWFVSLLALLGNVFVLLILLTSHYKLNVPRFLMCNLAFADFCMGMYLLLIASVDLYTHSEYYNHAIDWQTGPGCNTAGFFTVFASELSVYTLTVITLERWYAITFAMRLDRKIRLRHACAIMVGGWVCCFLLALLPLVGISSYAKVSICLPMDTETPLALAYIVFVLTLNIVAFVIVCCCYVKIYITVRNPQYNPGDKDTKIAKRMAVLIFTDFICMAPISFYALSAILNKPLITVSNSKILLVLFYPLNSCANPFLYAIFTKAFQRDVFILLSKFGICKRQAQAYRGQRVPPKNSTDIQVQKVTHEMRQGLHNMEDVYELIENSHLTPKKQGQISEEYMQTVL
Sequence of Motilin receptor (Homo sapiens) (O43193 whole entry): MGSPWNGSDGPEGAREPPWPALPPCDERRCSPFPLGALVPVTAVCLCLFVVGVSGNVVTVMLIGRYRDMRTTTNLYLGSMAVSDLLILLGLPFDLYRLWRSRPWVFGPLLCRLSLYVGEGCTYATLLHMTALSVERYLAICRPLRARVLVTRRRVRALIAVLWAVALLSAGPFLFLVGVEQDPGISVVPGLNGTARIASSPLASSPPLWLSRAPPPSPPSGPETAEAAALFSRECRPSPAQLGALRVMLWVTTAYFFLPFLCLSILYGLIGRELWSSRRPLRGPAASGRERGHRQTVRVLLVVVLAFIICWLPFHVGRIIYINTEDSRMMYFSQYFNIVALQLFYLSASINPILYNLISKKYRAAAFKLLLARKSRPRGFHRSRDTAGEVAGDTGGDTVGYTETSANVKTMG
Sequence of P2Y purinoceptor 2 (Homo sapiens) (P41231 whole entry): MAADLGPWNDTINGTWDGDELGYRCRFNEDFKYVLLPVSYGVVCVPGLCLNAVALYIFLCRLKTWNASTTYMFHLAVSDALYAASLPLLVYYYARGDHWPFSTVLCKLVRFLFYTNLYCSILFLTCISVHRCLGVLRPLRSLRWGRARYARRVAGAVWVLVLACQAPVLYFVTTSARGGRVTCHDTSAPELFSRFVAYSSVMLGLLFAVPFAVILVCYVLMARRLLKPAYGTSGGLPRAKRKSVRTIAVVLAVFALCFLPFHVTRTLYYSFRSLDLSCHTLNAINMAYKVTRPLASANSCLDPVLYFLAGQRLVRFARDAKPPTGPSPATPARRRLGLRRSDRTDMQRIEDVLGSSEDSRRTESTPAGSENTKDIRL
Sequence of Melanocortin receptor 4 (Homo sapiens) (P32245 whole entry): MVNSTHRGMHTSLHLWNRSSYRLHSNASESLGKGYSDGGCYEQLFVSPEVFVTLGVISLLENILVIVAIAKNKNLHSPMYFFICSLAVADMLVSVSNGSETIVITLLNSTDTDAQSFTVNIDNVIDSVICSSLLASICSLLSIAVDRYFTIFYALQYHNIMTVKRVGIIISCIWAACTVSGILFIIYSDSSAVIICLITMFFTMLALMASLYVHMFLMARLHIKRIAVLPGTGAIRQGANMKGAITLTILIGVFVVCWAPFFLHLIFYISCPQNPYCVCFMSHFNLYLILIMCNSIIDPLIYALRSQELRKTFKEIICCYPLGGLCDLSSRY
Sequence of Histamine H3 receptor (Homo sapiens) (Q9Y5N1 whole entry): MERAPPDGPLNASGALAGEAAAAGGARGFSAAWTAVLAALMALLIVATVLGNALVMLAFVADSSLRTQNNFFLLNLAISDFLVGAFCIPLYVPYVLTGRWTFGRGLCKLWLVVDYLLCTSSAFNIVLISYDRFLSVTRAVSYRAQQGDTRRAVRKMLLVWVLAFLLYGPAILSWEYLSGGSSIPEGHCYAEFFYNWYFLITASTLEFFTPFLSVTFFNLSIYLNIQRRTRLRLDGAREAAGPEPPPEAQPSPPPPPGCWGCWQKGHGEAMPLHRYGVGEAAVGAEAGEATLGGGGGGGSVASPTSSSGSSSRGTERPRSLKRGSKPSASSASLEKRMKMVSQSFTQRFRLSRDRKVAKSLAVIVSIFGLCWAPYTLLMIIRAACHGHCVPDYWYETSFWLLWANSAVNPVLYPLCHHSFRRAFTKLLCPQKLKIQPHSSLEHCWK
Sequence of Cannabinoid receptor 1 (Homo sapiens) (P21554 whole entry): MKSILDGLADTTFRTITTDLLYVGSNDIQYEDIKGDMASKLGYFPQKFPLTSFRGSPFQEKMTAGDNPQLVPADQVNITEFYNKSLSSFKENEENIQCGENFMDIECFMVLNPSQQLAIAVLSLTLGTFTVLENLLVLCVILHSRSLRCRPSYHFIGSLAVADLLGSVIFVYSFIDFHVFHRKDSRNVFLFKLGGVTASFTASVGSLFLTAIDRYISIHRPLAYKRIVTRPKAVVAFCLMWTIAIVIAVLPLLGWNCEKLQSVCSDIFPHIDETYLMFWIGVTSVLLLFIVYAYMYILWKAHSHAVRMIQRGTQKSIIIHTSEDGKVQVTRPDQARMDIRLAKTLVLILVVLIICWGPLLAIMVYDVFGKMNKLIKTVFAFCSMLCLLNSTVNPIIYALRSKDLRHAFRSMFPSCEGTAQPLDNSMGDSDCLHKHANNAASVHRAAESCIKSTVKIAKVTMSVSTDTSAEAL
Sequence of Beta-2 adrenergic receptor (Homo sapiens) (P07550 whole entry, looked up): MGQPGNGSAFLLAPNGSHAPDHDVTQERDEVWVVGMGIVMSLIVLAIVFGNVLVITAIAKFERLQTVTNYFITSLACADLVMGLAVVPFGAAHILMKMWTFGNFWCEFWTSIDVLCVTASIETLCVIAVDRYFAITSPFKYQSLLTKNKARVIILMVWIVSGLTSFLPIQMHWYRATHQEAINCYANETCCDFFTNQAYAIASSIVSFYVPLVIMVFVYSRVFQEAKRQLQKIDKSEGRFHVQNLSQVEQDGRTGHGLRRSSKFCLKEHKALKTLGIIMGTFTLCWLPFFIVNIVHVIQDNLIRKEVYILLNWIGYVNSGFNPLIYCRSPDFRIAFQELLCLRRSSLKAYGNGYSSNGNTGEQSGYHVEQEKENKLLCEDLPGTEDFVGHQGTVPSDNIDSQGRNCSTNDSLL

Row | SMILES | Activity [1] [%] | clearance [2] [mL/min/kg] | Activity [3] [%] | AUC/dose [4] [kg·h/L] | IC50 [5] [µM] | Ratio IC50 [6] | chromatographic logD [7] | Fh at 1 µM [8] [%] | Activity [9] [%] | Activity [10] [%] | IC50 [11] [µM] | Activity [12] [%] | IC50 [13] [µM] | Vd [14] [L/kg] | CLhep predicted at 1 µM [15] [mL/min/kg] | Activity [16] [%] | Activity [17] [%] | Activity [18] [%] | Cmax/dose [19] [kg/L] | AUC/dose [20] [kg·h/L] | also measured
1 | O=C(Nc1ccc(Oc2ccc(F)cc2)cc1)N1CCc2ncccc2[C@@H]1c1ccc(Cl)cc1 | < 70 | 1.83 | < 70 | 9.4 | 0.096 | 24 | 4.7 | 85 | < 70 | < 70 | 3 | < 70 | > 20 | 1.8 | 3.33 | < 70 | < 70 | < 70 | 0.97 | 7.8 | Activity [21]: < 70%; fraction unbound [22]: 0.002; efflux ratio at 2 h, 2 µM [23]: 1.3; IC50 [24]: 2.3 µM; Activity [25]: < 70%; Activity [26]: < 70%; Activity [27]: < 70%
2 | O=C(Nc1cnc(Oc2ccc(F)cc2)nc1)N1CCc2ncccc2[C@@H]1c1ccc(F)cc1 [BAY-899] | < 70 | 6.83 | < 70 | 2.5 | 0.185 | > 100 | 2.8 | 89 | < 70 | < 70 | 10.6 | < 70 | > 20 | 16 | 1.67 | < 70 | < 70 | < 70 | 0.28 | 2.7 | Activity [21]: < 70%; fraction unbound [22]: 0.017; efflux ratio at 2 h, 2 µM [23]: 1.1; IC50 [24]: 24 µM; Activity [25]: < 70%; Activity [26]: < 70%; Activity [27]: < 70%
